Key:
Type in all cases: in vivo, chicken chicks
[1] = tested on: Eimeria acervulina, Eimeria maxima and Eimeria tenella; experiment: Cage experiments coccidiosis/chicks, mixed experimental infection
Protocol: (§1) The efficacy of the compounds according to the invention can be confirmed, for example, in cage experiments using the following experimental arrangement, in which the animals are treated with the respective individual components and with the mixtures of the individual components.
(§2) An active compound-containing feed is prepared in such a way that the required amount of active compound is thoroughly mixed with a nutritionally balanced animal feed, e.g. with the chick feed indicated below.
(§3) 8 to 12 day-old male chicken chicks raised under coccidea-free conditions (e.g. LSL Brinkschulte/Senden) receive the compounds according to the invention (test substances) from 3 days before (day -3) the infection (=a.i.) until 8 (9) days after the infection (=p.i.) with the feed in the concentration indicated in ppm. Three animals are kept in each cage. Per dose, one to a number of groups of this type are employed. Infection is carried out by means of a stomach tube directly into the crop using approximately 100,000 sporulated oocysts of Eimeria acervulina and with in each case approximately 30,000 oocysts of E. maxima and 40,000 sporulated oocysts of E. tenella. These are highly virulent strains. The exact infectious dose is adjusted such that if possible one of three experimentally infected untreated chicks dies due to infection. For the assessment of the efficacy, the following criteria are taken into consideration: weight increase from the start of the experiment to the end of the experiment, death rate due to infection, macroscopic assessment of the faeces with respect to diarrhoea and excretion of blood on days 5 and 7 p.i. (grade 0 to 6), macroscopic grade of the intestinal mucous membrane, in particular of the cecums (grade 0 to 6) and the oocyst excretion and also the proportion (in %) of the oocysts sporulating within 24 hours. The number of oocysts in the faeces was determined with the aid of the McMaster counting chamber (see Engelbrecht and coworkers “Parasitologische Arbeitsmethoden in Medizin und Veterinärmedizin, [Parasitological working methods in medicine and veterinary medicine] Akademie-Verlag, Berlin (1965)). The individual findings are related to the untreated noninfected control groups and an overall grade is calculated (cf. A. Haberkorn (1986), pp. 263 to 270 in Research in Avian Coccidiosis ed L. R. McDougald, L. P. Joyner, P. L. Long Proceedings of the Georgia Coccidiosis Conference Nov, 18-20, 1985 Athens/Ga. USA).
In the column “ppm”, the concentration of the active compound employed in the feed is indicated in ppm.
In the column “mortality”, the percentage of the animals which have died is indicated under % and the number of the animals which have died/animals employed in the experiment is indicated under n.
In the column “weight % of not inf. control”, the ratio of the weight of the treated animals to the weight of the noninfected control group is indicated.
(§4) In the columns “dropping scores”, “lesion score” and “oocyst control”, individual details of the action are given.
In the column “% efficacy”, the overall rating is assessed; 0% means no action, 100% means complete action.

Eimeria acervulina = experiment: Cage experiments coccidiosis/chicks, Eimeria acervulina part of the mixed infection; settings: for Efficacy against Eimeria acervulina (grade): first symbol of cell
Protocol: as §1, §2, §3, §4

Eimeria maxima = experiment: Cage experiments coccidiosis/chicks, Eimeria maxima part of the mixed infection; settings: for Efficacy against Eimeria maxima (grade): second symbol of cell
Protocol: as §1, §2, §3, §4

Eimeria tenella = experiment: Cage experiments coccidiosis/chicks, Eimeria tenella part of the mixed infection; settings: for Efficacy against Eimeria tenella (grade): third symbol of cell
Protocol: as §1, §2, §3, §4

With `Cc1oc(=O)oc1Cn1c(C(F)(F)F)nc2c(C(F)(F)F)cc(C(F)(F)F)cc21` [Example 28] the “% efficacy tot.” value ([1]; 5 ppm in feed) was 75%, the mortality % ([1]; 5 ppm in feed) was 0% and the “mortality n (died/employed)” value ([1]; 5 ppm in feed) was 0/3. For the same compound, the “oocyst in % of inf. control tot.” value ([1]; 5 ppm in feed) was 1%, the “weight % of not inf. control” value ([1]; 5 ppm in feed) was 85% and the dropping scores ([1]; 5 ppm in feed, grade 0 to 6) was 6. For the same compound, the lesion score ([1]; 5 ppm in feed, grade 0 to 6) was 1, the “% efficacy tot.” value ([1]; 10 ppm in feed) was 91% and the mortality % ([1]; 10 ppm in feed) was 0%. The “mortality n (died/employed)” value ([1]; 10 ppm in feed) was 0/3, the “oocyst in % of inf. control tot.” value ([1]; 10 ppm in feed) was 0% and the “weight % of not inf. control” value ([1]; 10 ppm in feed) was 82%. It also gave a dropping scores ([1]; 10 ppm in feed, grade 0 to 6) of 0, a lesion score ([1]; 10 ppm in feed, grade 0 to 6) of 0 and a mortality % ([1]; 25 ppm in feed) of 100%. For the same compound, the “mortality n (died/employed)” value ([1]; 25 ppm in feed) was 3/3, the dropping scores ([1]; 25 ppm in feed, grade 0 to 6) was 0 and the “oocyst in % of inf. control ac.” value (Eimeria acervulina; 5 ppm in feed) was 2%. The “oocyst in % of inf. control ac.” value (Eimeria acervulina; 10 ppm in feed) was 0%, the “Efficacy against Eimeria acervulina (grade)” value (Eimeria acervulina; Dose 5 ppm) was 2 and the “Efficacy against Eimeria acervulina (grade)” value (Eimeria acervulina; Dose 10 ppm) was 2. The “oocyst in % of inf. control max.” value (Eimeria maxima; 5 ppm in feed) was 2%, the “oocyst in % of inf. control max.” value (Eimeria maxima; 10 ppm in feed) was 0% and the “Efficacy against Eimeria maxima (grade)” value (Eimeria maxima; Dose 5 ppm) was 2. The “Efficacy against Eimeria maxima (grade)” value (Eimeria maxima; Dose 10 ppm) was 2, the “oocyst in % of inf. control ten.” value (Eimeria tenella; 5 ppm in feed) was 0% and the “oocyst in % of inf. control ten.” value (Eimeria tenella; 10 ppm in feed) was 0%. For the same compound, the “Efficacy against Eimeria tenella (grade)” value (Eimeria tenella; Dose 5 ppm) was 2 and the “Efficacy against Eimeria tenella (grade)” value (Eimeria tenella; Dose 10 ppm) was 2.
In the case of `Cc1oc(=O)oc1Cn1c(C(F)(F)F)nc2c(Br)cc3c(c21)OC(F)(F)C(F)(F)O3` [Example 14], the “% efficacy tot.” value ([1]; 2.5 ppm in feed) was 30%, the mortality % ([1]; 2.5 ppm in feed) was 0% and the “mortality n (died/employed)” value ([1]; 2.5 ppm in feed) was 0/3. For the same compound, the “oocyst in % of inf. control tot.” value ([1]; 2.5 ppm in feed) was 35%, the “weight % of not inf. control” value ([1]; 2.5 ppm in feed) was 44% and the dropping scores ([1]; 2.5 ppm in feed, grade 0 to 6) was 6. The lesion score ([1]; 2.5 ppm in feed, grade 0 to 6) was 6, the “% efficay tot.” value ([1]; 5 ppm) was 0% and the dropping scores ([1]; 5 ppm) was 6. For the same compound, the lesion score ([1]; 5 ppm) was 6, the mortality % ([1]; 5 ppm) was 33% and the mortality n ([1]; 5 ppm) was 1/3. The “oocyst in % of inf. control tot.” value ([1]; 5 ppm) was 67 % of inf. control, the “weight % of not inf. control” value ([1]; 5 ppm) was 29 % of not inf. control and the “% efficacy tot.” value ([1]; 5 ppm in feed) was 66%. For the same compound, the mortality % ([1]; 5 ppm in feed) was 33%, the “mortality n (died/employed)” value ([1]; 5 ppm in feed) was 1/3 and the “oocyst in % of inf. control tot.” value ([1]; 5 ppm in feed) was 2%. The “weight % of not inf. control” value ([1]; 5 ppm in feed) was 90.6%, the dropping scores ([1]; 5 ppm in feed, grade 0 to 6) was 6 and the lesion score ([1]; 5 ppm in feed, grade 0 to 6) was 5.5. For the same compound, the “% efficay tot.” value ([1]; 7.5 ppm) was 45%, the dropping scores ([1]; 7.5 ppm) was 6 and the lesion score ([1]; 7.5 ppm) was 6. The mortality % ([1]; 7.5 ppm) was 0%, the mortality n ([1]; 7.5 ppm) was 0/3 and the “oocyst in % of inf. control tot.” value ([1]; 7.5 ppm) was 15 % of inf. control. The “weight % of not inf. control” value ([1]; 7.5 ppm) was 61 % of not inf. control, the “% efficay tot.” value ([1]; 10 ppm) was 45% and the dropping scores ([1]; 10 ppm) was 3. The lesion score ([1]; 10 ppm) was 6, the mortality % ([1]; 10 ppm) was 0% and the mortality n ([1]; 10 ppm) was 0/3. For the same compound, the “oocyst in % of inf. control tot.” value ([1]; 10 ppm) was 16 % of inf. control, the “weight % of not inf. control” value ([1]; 10 ppm) was 79 % of not inf. control and the “% efficacy tot.” value ([1]; 10 ppm in feed) was 69%. The mortality % ([1]; 10 ppm in feed) was 0%, the “mortality n (died/employed)” value ([1]; 10 ppm in feed) was 0/3 and the “oocyst in % of inf. control tot.” value ([1]; 10 ppm in feed) was 4%. For the same compound, the “weight % of not inf. control” value ([1]; 10 ppm in feed) was 81%, the dropping scores ([1]; 10 ppm in feed, grade 0 to 6) was 4 and the lesion score ([1]; 10 ppm in feed, grade 0 to 6) was 6. The “oocyst in % of inf. control ac.” value (Eimeria acervulina; 2.5 ppm in feed) was 92%, the “oocyst in % of inf. control ac.” value (Eimeria acervulina; 5 ppm) was 80 % of inf. control and the “oocyst in % of inf. control ac.” value (Eimeria acervulina; 5 ppm in feed) was 3%. For the same compound, the “oocyst in % of inf. control ac.” value (Eimeria acervulina; 7.5 ppm) was 16 % of inf. control, the “oocyst in % of inf. control ac.” value (Eimeria acervulina; 10 ppm) was 2 % of inf. control and the “oocyst in % of inf. control ac.” value (Eimeria acervulina; 10 ppm in feed) was 1%. For the same compound, the “Efficacy against Eimeria acervulina (grade)” value (Eimeria acervulina; Dose 5 ppm) was 2, the “Efficacy against Eimeria acervulina (grade)” value (Eimeria acervulina; Dose 10 ppm) was 2 and the “oocyst in % of inf. control max.” value (Eimeria maxima; 2.5 ppm in feed) was 0%. The “oocyst in % of inf. control max.” value (Eimeria maxima; 5 ppm) was 57 % of inf. control, the “oocyst in % of inf. control max.” value (Eimeria maxima; 5 ppm in feed) was 6% and the “oocyst in % of inf. control max.” value (Eimeria maxima; 7.5 ppm) was 1 % of inf. control. For the same compound, the “oocyst in % of inf. control max.” value (Eimeria maxima; 10 ppm) was >100 % of inf. control, the “oocyst in % of inf. control max.” value (Eimeria maxima; 10 ppm in feed) was 0% and the “Efficacy against Eimeria maxima (grade)” value (Eimeria maxima; Dose 5 ppm) was 2. The “Efficacy against Eimeria maxima (grade)” value (Eimeria maxima; Dose 10 ppm) was 2, the “oocyst in % of inf. control ten.” value (Eimeria tenella; 2.5 ppm in feed) was 12% and the “oocyst in % of inf. control ten.” value (Eimeria tenella; 5 ppm) was 44 % of inf. control. For the same compound, the “oocyst in % of inf. control ten.” value (Eimeria tenella; 5 ppm in feed) was 1%, the “oocyst in % of inf. control ten.” value (Eimeria tenella; 7.5 ppm) was 15 % of inf. control and the “oocyst in % of inf. control ten.” value (Eimeria tenella; 10 ppm) was 26 % of inf. control. For the same compound, the “oocyst in % of inf. control ten.” value (Eimeria tenella; 10 ppm in feed) was 7%, the “Efficacy against Eimeria tenella (grade)” value (Eimeria tenella; Dose 5 ppm) was 1 and the “Efficacy against Eimeria tenella (grade)” value (Eimeria tenella; Dose 10 ppm) was 1.
For `Cc1oc(=O)oc1Cn1c(C(F)(F)F)nc2cc(C(F)(F)F)c(Cl)cc21` [Example 19], the “% efficacy tot.” value ([1]; 5 ppm in feed) was 7%, the mortality % ([1]; 5 ppm in feed) was 0% and the “mortality n (died/employed)” value ([1]; 5 ppm in feed) was 0/3. For the same compound, the “oocyst in % of inf. control tot.” value ([1]; 5 ppm in feed) was over 100%, the “weight % of not inf. control” value ([1]; 5 ppm in feed) was 52% and the dropping scores ([1]; 5 ppm in feed, grade 0 to 6) was 4. The lesion score ([1]; 5 ppm in feed, grade 0 to 6) was 6, the “% efficacy tot.” value ([1]; 10 ppm in feed) was 66% and the mortality % ([1]; 10 ppm in feed) was 0%. For the same compound, the “mortality n (died/employed)” value ([1]; 10 ppm in feed) was 0/3, the “oocyst in % of inf. control tot.” value ([1]; 10 ppm in feed) was 5% and the “weight % of not inf. control” value ([1]; 10 ppm in feed) was 75%. The dropping scores ([1]; 10 ppm in feed, grade 0 to 6) was 3, the lesion score ([1]; 10 ppm in feed, grade 0 to 6) was 4 and the “% efficacy tot.” value ([1]; 25 ppm in feed) was 7%. For the same compound, the mortality % ([1]; 25 ppm in feed) was 0%, the “mortality n (died/employed)” value ([1]; 25 ppm in feed) was 0/3 and the “oocyst in % of inf. control tot.” value ([1]; 25 ppm in feed) was over 100%. For the same compound, the “weight % of not inf. control” value ([1]; 25 ppm in feed) was 56%, the dropping scores ([1]; 25 ppm in feed, grade 0 to 6) was 6 and the lesion score ([1]; 25 ppm in feed, grade 0 to 6) was 6. For the same compound, the “oocyst in % of inf. control ac.” value (Eimeria acervulina; 5 ppm in feed) was over 100%, the “oocyst in % of inf. control ac.” value (Eimeria acervulina; 10 ppm in feed) was 5% and the “oocyst in % of inf. control ac.” value (Eimeria acervulina; 25 ppm in feed) was over 100%. For the same compound, the “Efficacy against Eimeria acervulina (grade)” value (Eimeria acervulina; Dose 5 ppm) was 0, the “Efficacy against Eimeria acervulina (grade)” value (Eimeria acervulina; Dose 10 ppm) was 2 and the “Efficacy against Eimeria acervulina (grade)” value (Eimeria acervulina; Dose 25 ppm) was 0. The “oocyst in % of inf. control max.” value (Eimeria maxima; 5 ppm in feed) was over 100%, the “oocyst in % of inf. control max.” value (Eimeria maxima; 10 ppm in feed) was 13% and the “oocyst in % of inf. control max.” value (Eimeria maxima; 25 ppm in feed) was over 100%. The “Efficacy against Eimeria maxima (grade)” value (Eimeria maxima; Dose 5 ppm) was 0, the “Efficacy against Eimeria maxima (grade)” value (Eimeria maxima; Dose 10 ppm) was 1 and the “Efficacy against Eimeria maxima (grade)” value (Eimeria maxima; Dose 25 ppm) was 0. The “oocyst in % of inf. control ten.” value (Eimeria tenella; 5 ppm in feed) was over 100%, the “oocyst in % of inf. control ten.” value (Eimeria tenella; 10 ppm in feed) was 5% and the “oocyst in % of inf. control ten.” value (Eimeria tenella; 25 ppm in feed) was over 100%. The “Efficacy against Eimeria tenella (grade)” value (Eimeria tenella; Dose 5 ppm) was 0, the “Efficacy against Eimeria tenella (grade)” value (Eimeria tenella; Dose 10 ppm) was 1 and the “Efficacy against Eimeria tenella (grade)” value (Eimeria tenella; Dose 25 ppm) was 0.
